Laboratory results as given in the supplement of paper PMC10307832.

How the values were obtained:
Assay in all cases: relative viability (nuclei count vs DMSO), 5 days (fraction); higher = more cells survive
[1] = compound: C1COCCN1C2=NC(=NC3=C2OC4=C3C=CC=N4)C5=CC(=CC=C5)NC(=O)C6=CN=C(C=C6)N + Cc1nc(Nc2ncc(C(=O)Nc3c(C)cccc3Cl)s2)cc(N2CCN(CCO)CC2)n1 [Dasatinib] (partner 0.075 µM)
Method in brief: (§1)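 After 5 days of treatment, lung cancer cells in 1536-well plates were fixed and stained in a single step (final 0.05% Triton X-100, 1% formaldehyde, 1 ug/ml Hoechst) and their nuclei counted on 4× images. Treatment had been applied by pin tool the day after seeding as one drug alone or as a fixed anchor-drug dose with five library-drug doses (not always all listed) in √10 steps. Relative viability is the nuclei count of treated wells divided by that of vehicle wells, and values are medians of duplicate plates.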

SGI-1776 + OSI-027 = compound: CN1CCC(CNc2ccc3ncc(-c4cccc(OC(F)(F)F)c4)n3n2)CC1 [SGI-1776] + COc1cccc2cc(-c3nc([C@H]4CC[C@H](C(=O)O)CC4)n4ncnc(N)c34)[nH]c12 [OSI-027] (partner 0.5 µM)
Method in brief: as §1

SGI-1776 + Pemetrexed = compound: CN1CCC(CNc2ccc3ncc(-c4cccc(OC(F)(F)F)c4)n3n2)CC1 [SGI-1776] + Nc1nc2[nH]cc(CCc3ccc(C(=O)N[C@@H](CCC(=O)O)C(=O)O)cc3)c2c(=O)[nH]1 [Pemetrexed] (partner 0.2 µM)
Method in brief: as §1

[2] = compound: C1COCCN1C2=NC(=NC3=C2OC4=C3C=CC=N4)C5=CC(=CC=C5)NC(=O)C6=CN=C(C=C6)N + Cc1nc(NC(=O)N2CCC[C@H]2C(N)=O)sc1-c1ccnc(C(C)(C)C(F)(F)F)c1 [Alpelisib] (partner 2 µM)
Method in brief: as §1

| Cell Line | relative viability ([1]; first compound 0.02 µM) | relative viability ([1]; first compound 0.06325 µM) | relative viability ([1]; first compound 0.2 µM) | relative viability ([1]; first compound 0.6325 µM) | relative viability ([1]; first compound 2 µM) | relative viability (SGI-1776 + OSI-027; first compound 0.08 µM) | relative viability (SGI-1776 + OSI-027; first compound 0.8 µM) | relative viability (SGI-1776 + OSI-027; first compound 2.53 µM) | relative viability (SGI-1776 + OSI-027; first compound 8 µM) | relative viability (SGI-1776 + Pemetrexed; first compound 0.08 µM) | relative viability (SGI-1776 + Pemetrexed; first compound 0.8 µM) | relative viability (SGI-1776 + Pemetrexed; first compound 2.53 µM) | relative viability (SGI-1776 + Pemetrexed; first compound 8 µM) | relative viability ([2]; first compound 0.02 µM) | relative viability ([2]; first compound 0.06325 µM) | relative viability ([2]; first compound 0.2 µM) | relative viability ([2]; first compound 0.6325 µM) | relative viability ([2]; first compound 2 µM) |
| --- | --- | --- | --- | --- | --- | --- | --- | --- | --- | --- | --- | --- | --- | --- | --- | --- | --- | --- |
| ChaGo-K-1 | 0.555 | 0.625 | 0.605 | 0.508 | 0.522 | 0.619 | 0.61 | 0.39 | 0.413 | 0.269 | 0.267 | 0.287 | 0.242 |  |  |  |  |  |
| A549 |  |  |  |  |  |  |  |  |  |  |  |  |  | 0.64 | 0.793 | 0.644 | 0.63 | 0.346 |
| Calu-6 |  |  |  |  |  |  |  |  |  |  |  |  |  | 1.09 | 0.979 | 0.882 | 0.936 | 0.721 |
| NCI-H1648 |  |  |  |  |  | 0.233 | 0.273 | 0.249 | 0.238 | 0.617 | 0.868 | 0.688 | 0.683 |  |  |  |  |  |
| NCI-H1623 | 0.516 | 0.469 | 0.516 | 0.527 | 0.498 | 0.459 | 0.416 | 0.502 | 0.427 |  |  |  |  |  |  |  |  |  |
| HCC-44 |  |  |  |  |  | 0.672 | 0.493 | 0.407 | 0.28 | 0.612 | 0.621 | 0.679 | 0.633 | 0.803 | 0.879 | 1.04 | 0.807 | 0.499 |
| NCI-H2342 | 0.296 | 0.306 | 0.283 | 0.327 | 0.301 | 0.671 | 0.671 | 0.552 | 0.622 | 0.815 | 0.888 | 0.802 | 0.819 |  |  |  |  |  |
| ABC-1 | 0.586 | 0.612 | 0.523 | 0.587 | 0.54 | 0.401 | 0.552 | 0.472 | 0.407 |  |  |  |  | 1.03 | 1.05 | 0.981 | 0.971 | 0.695 |
| NCI-H1650 | 0.336 | 0.29 | 0.287 | 0.278 | 0.248 | 0.627 | 0.565 | 0.417 | 0.197 | 0.348 | 0.367 | 0.36 | 0.296 |  |  |  |  |  |
| NCI-H522 | 0.936 | 0.983 | 0.899 | 0.877 | 0.837 | 0.713 | 0.811 | 0.749 | 0.569 | 0.953 | 0.867 | 0.98 | 0.889 |  |  |  |  |  |
| IA-LM |  |  |  |  |  |  |  |  |  |  |  |  |  |  | 0.853 | 0.582 | 0.609 | 0.43 |
| SW 900 | 0.54 | 0.538 | 0.613 | 0.518 | 0.448 | 0.56 | 0.689 | 0.564 | 0.399 | 0.488 | 0.486 | 0.493 | 0.46 |  |  |  |  |  |
| EBC-1 |  |  |  |  |  |  |  |  |  |  |  |  |  | 0.653 | 0.728 | 0.742 | 0.713 | 0.478 |
| NCI-H727 | 0.388 | 0.351 | 0.295 | 0.442 | 0.345 | 0.543 | 0.627 | 0.615 | 0.438 |  |  |  |  | 0.472 | 0.418 | 0.51 | 0.693 | 0.341 |
